Results reported in article PMC5587910, “Methionine Sulfoxide Reductase A (MsrA) and Its Function in Ubiquitin-Like Protein Modification in Archaea” (mBio, 2017).

Experiments:
HvMsrA (MsrA-StrepII) = target: T1, HvMsrA (MsrA-StrepII) (Haloferax volcanii, UniProt D4GQQ9); assay: MSO-peptide reductase assay, HPLC of dabsyl-Met; type: biochemical
T1 construct: gene msrA1; C-terminal StrepII tag; expressed in E. coli Rosetta (DE3), Strep-Tactin and Superdex 75 purified; 21 kDa
T1 sequence (D4GQQ9 1-189): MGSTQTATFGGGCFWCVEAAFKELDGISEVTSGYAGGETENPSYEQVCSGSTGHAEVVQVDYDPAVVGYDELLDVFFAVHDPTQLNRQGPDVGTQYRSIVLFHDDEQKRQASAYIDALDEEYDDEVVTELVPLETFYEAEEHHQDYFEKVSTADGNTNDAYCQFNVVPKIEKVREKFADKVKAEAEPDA

HvMsrB (MsrB-StrepII) = target: T2, HvMsrB (MsrB-StrepII) (Haloferax volcanii, UniProt D4GVV0); assay: MSO-peptide reductase assay of cell lysate, HPLC of dabsyl-Met; type: biochemical; settings: 400 µg cell extract, 200 µM dabsyl-MSO, 20 mM DTT, 25 mM Tris-Cl pH 7.5, 37°C
T2 construct: StrepII-tagged, expressed from plasmid in Hfx. volcanii deletion strains; cell lysate
T2 sequence (D4GVV0 entry or part of it): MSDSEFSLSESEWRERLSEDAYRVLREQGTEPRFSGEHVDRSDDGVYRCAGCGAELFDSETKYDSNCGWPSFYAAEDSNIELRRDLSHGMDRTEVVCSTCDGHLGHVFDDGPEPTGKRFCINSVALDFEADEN

Structure (SMILES): C[S+]([O-])CC[C@H](N)C(=O)O (stereo partly drawn) [MSO]
- MSO-peptide reductase assay, HPLC of dabsyl-Met (HvMsrA (MsrA-StrepII); inhibitor, 0 to 20 mM MSO, dabsyl-MSO substrate, DTT, Tris-Cl pH 7.5, NaCl 0.2 to 2 M, 37°C, probably competing substrate): DMSO and MSO inhibited the MSO-peptide reductase activity of HvMsrA in a dose-dependent manner

Structure (SMILES): CN(C)c1ccc(N=Nc2ccc(S(=O)(=O)N[C@@H](CC[S+](C)[O-])C(=O)O)cc2)cc1 (stereo partly drawn) [dabsyl-MSO]
- MSO-peptide reductase assay of cell lysate, HPLC of dabsyl-Met (HvMsrB (MsrB-StrepII)): HvMsrB was also found to catalyze MSO-peptide reductase activity
- MSO-peptide reductase assay, HPLC of dabsyl-Met (HvMsrA (MsrA-StrepII); 200 µM dabsyl-MSO, 20 mM DTT, 25 mM Tris-Cl pH 7.5, 37°C, 30 min): HvMsrA was found to catalyze the reduction of the MSO peptide
